Patent US20060166872A1, “Fp receptor antagonists or pgf2 alpha antagonists for treating menorrhagia” (priority 2002, published 2006)
“Also recorded” adds a separate entry of the source.

What was measured:
[1] = tested on: prostaglandin receptor TP; details: 10 μM; cited from earlier work
[2] = biological target: prostaglandin receptor EP4 (Homo sapiens, UniProt P35408); details: 10 μM; cited from earlier work
[3] = tested on: FP receptor; details: cited from earlier work
[4] = biological target: T1, prostaglandin receptor DP (Homo sapiens, UniProt Q13258); details: 10 μM; cited from earlier work
T1 sequence (Q13258 1-359): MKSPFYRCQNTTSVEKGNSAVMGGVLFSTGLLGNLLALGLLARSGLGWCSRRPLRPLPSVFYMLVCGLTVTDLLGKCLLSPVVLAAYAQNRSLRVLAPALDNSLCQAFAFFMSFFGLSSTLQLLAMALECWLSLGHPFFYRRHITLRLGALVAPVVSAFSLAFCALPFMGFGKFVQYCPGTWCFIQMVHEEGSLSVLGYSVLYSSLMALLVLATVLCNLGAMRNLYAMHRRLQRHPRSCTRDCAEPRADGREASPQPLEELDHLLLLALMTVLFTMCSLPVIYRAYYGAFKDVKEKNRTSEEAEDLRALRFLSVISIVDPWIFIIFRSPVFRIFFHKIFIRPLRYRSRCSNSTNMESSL

[5] = biological target: prostaglandin receptor EP2 (Homo sapiens, UniProt P43116); details: 10 μM; cited from earlier work
Chain of prostaglandin receptor EP2 (P43116 whole entry): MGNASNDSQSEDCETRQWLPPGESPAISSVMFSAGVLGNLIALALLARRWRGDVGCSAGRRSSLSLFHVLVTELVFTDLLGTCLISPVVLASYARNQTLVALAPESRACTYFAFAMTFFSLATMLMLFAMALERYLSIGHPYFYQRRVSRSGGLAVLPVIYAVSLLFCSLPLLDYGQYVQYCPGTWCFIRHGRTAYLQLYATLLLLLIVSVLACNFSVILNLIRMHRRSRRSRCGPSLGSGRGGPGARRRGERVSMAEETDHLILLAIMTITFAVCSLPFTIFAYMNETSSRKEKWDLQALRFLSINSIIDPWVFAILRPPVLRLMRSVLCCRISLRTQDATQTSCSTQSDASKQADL

[6] = tested on: Ishikawa cells; assay: Proliferation assay, BrdU incorporation ELISA; type: cell-based, human; details: for basal proliferation (BrdU incorporation): no PGF2α
Protocol: Proliferation of Ishikawa cells was determined using a BrdU incorporation ELISA (Roche Diagnostics GmbH, Mannheim, Germany). Briefly, Ishikawa cells were seeded at 5×10^3 cells per well in a 96-well plate and allowed to adhere overnight. Cells were next starved for 24 hr with indomethacin 1.5 μg/ml before 24 h PGF2α treatment (1 nM-1 μM) in serum-free medium containing indomethacin. Inhibitors were added to cells for 60 min before PGF2α with the control well receiving the same concentration of vehicle. Following 24 h treatment, cells were labelled with BrdU for 4 h, then fixed and assayed for BrdU incorporation using standard immunohistochemical techniques. Results were plotted as percentages of untreated cells.

[7] = biological target: T2, PGES (Homo sapiens, UniProt O14684); details: read-out: IC50 for inhibition of PGES activity; cited from earlier work
T2 sequence (O14684 1-152): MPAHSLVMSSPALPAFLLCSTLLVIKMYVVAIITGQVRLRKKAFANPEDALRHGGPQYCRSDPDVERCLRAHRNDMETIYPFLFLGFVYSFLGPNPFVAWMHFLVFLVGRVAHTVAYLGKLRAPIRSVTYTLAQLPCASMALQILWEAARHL

[8] = tested on: human endometrium; assay: Total inositol phosphate (InsP) assay in human endometrium; type: cell-based
Protocol: (§1) PGF2α stimulation of total InsP production was as described (21). Briefly, tissue samples or Ishikawa cells were incubated with inositol free DMEM containing 1% dialyzed heat-inactivated FCS and 0.5 μCi/well myo-[^3H]inositol (Amersham Pharmacia Biotech) for 48 hours. Medium was removed, and cells washed with 1 ml buffer (140 mM NaCl, 20 mM HEPES, 4 mM KCl, 8 mM glucose, 1 mM MgCl2, 1 mM CaCl2, 1 mg/ml bovine serum albumin) containing 10 mM LiCl. Cells were then incubated for 1 hour at 37° C. in 1 ml buffer with or without inhibitors. Following incubation agonist was added at the required concentration and cells incubated for 1 hour. Reactions were terminated by the removal of agonist and the addition of 500 μl ice cold 10 mM formic acid, which was incubated for 30 minutes at 4° C. Total [^3H] inositol phosphates was separated from the formic acid cell extracts on AG 1-X8 anion exchange resin (Bio-Rad) and eluted with a 1 M ammonium formate/0.1 M formic acid solution. The associated radioactivity was determined by liquid scintillation counting and plotted relative to protein concentrations determined using the modified Lowry method.

[9] = tested on: Ishikawa cells; assay: PGF2α-induced ERK phosphorylation in Ishikawa cells; type: cell-based, human; details: 100 nM, 10 min
Protocol: PGF2α-induced ERK phosphorylation in Ishikawa cells. PGF2α 100 nM was incubated for 10 and 30 min. U73122 2 μM was pre-incubated for 60 min before treatment with PGF2α.

[10] = tested on: HCT-8; details: HCT-8 human colon adenocarcinoma cell line; cited from earlier work
[11] = tested on: HT-29; details: HT-29 human colon adenocarcinoma cell line; cited from earlier work
[12] = tested on: Ishikawa cells; assay: Total inositol phosphate (InsP) assay in Ishikawa cells; type: cell-based, human; details: PGF2α 100 nM
Protocol: as §1

Chain of prostaglandin receptor EP4 (P35408 whole entry): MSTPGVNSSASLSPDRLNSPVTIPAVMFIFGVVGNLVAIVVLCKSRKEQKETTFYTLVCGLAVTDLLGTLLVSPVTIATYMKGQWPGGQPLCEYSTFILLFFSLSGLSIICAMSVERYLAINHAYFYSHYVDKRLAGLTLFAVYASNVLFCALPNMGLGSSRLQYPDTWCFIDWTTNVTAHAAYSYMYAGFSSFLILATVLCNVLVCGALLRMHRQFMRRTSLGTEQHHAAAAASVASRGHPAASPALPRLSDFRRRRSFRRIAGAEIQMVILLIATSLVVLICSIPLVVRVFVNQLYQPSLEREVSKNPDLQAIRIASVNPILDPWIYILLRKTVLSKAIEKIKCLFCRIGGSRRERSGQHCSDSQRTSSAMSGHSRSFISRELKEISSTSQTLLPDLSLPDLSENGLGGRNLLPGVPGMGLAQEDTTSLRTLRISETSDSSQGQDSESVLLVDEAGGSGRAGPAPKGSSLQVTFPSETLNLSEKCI

## O=C(O)CCC/C=C\C[C@@H]1[C@@H](/C=C/[C@H](O)C2Cc3ccccc3C2)[C@@H](F)C[C@@H]1O [AL-8810, (5Z, 13E)-(9S,11S,15R)-9,15-dihydroxy-11-fluoro-15-(2-indanyl)-16, 17, 18, 19, 20-pentanor-5,13-prostadienoic acid]
[1]
  inhibition of functional responses of TP receptor: not to significantly inhibit
[2]
  inhibition of functional responses of EP4 receptor: not to significantly inhibit
[3]
  FP (PGF2α) receptor agonist activity, in words: weak partial agonist
  FP (PGF2α) receptor antagonist activity, in words: highly selective antagonist; also recorded: micromolar potency
[4]
  inhibition of functional responses of DP receptor: not to significantly inhibit
[5]
  inhibition of functional responses of EP2 receptor: not to significantly inhibit

## Cc1ccc(S(=O)(=O)NC(=O)NN2CCCCCC2)cc1 [tolazamide]
[3]
  FP (PGF2α) receptor antagonist activity, in words: very weak antagonists

## COc1cccc(-c2cc(=O)c3ccccc3o2)c1N [PD98059]
[6]; PD98059 50 μM pre-treatment
  basal proliferation (BrdU incorporation): 84.0±5.8%

## CSc1ccc(/C=C2/C(C)=C(CC(=O)O)c3cc(F)ccc32)cc1 [sulindac sulphide]
[7]
  IC50: 80 µM

## CCCCNC(=O)NS(=O)(=O)c1ccc(C)cc1 [tolbutamide]
[3]
  FP (PGF2α) receptor antagonist activity, in words: very weak antagonists

## CCCCC(F)[C@H](O)/C=C/[C@H]1CC[C@H](O)[C@@H]1C/C=C\CCCC(=O)O (stereo partly drawn) [AL-3138, 11-deoxy-16-fluoro PGF2α]
[3]
  FP (PGF2α) receptor agonist activity, in words: weak partial agonist; also recorded: partial agonist of low efficacy
  FP (PGF2α) receptor antagonist activity, in words: highly selective antagonist

## CCCCC/C=C\C\C=C/C=C/C=C/[C@@H](SC[C@H](NC(=O)CC[C@H](N)C(=O)O)C(=O)NCC(=O)O)[C@@H](O)CCCC(=O)O [leukotriene C4]
[7]
  IC50: 5 µM

## COc1ccc2c(c1)CC[C@@H]1[C@@H]2CC[C@]2(C)[C@@H](NCCCCCCN3C(=O)C=CC3=O)CC[C@@H]12 [U73122]
[8]; pre-treatment with U73122 2 μM, PGF2α 100 nM
  effect on PGF2α-induced InsP mobilisation: inhibited
[6]; U73122 2 μM pre-incubation
  basal proliferation (BrdU incorporation): 93.9±1.9%

## prostaglandin F2α [PGF2α]
[8]
  concentration giving maximal InsP mobilisation: 100 nM
  total InsP production following treatment: concentration-dependent increase
[6]; PGF2α 100 nM (maximal), 24 h, Ishikawa cells
  BrdU incorporation (percentage of untreated cells): 136.3±7.48%
[9]
  increase in phosphorylated ERK intensity compared to native ERK: 6.6±0.7 fold
[10]
  proliferation: lack of proliferation
[11]
  proliferation: lack of proliferation
[12]
  maximum total InsP: 29 cpm/mg protein
